Series [1] concerns carrageen-induced paw edema. In words: Carrageenan-induced paw edema bioassay. Format: in vivo, rat. Further details: concentration or dose not given beside the values. To be noted: for % Of edema inhibition 1 h: 1 h after carrageenan injection; for % Of edema inhibition 3 h: 3 h after carrageenan injection; for % Of edema inhibition 5 h: 5 h after carrageenan injection. The protocol: The compounds’ efficacy was measured as edema inhibition percentage (EI %) after 1, 3, and 5 h of carrageenan injection vs. the conventional medicine Celecoxib.
Compounds 3c, 3e, 3h, and 3j were chosen for in vivo anti-inflammatory testing using the carrageen-induced paw edema bioassay method described by [Winter et al, (1962)]. The compounds’ efficacy was measured as edema inhibition percentage (EI%) after 1, 3, and 5 h of carrageenan injection vs. the conventional medicine Celecoxib.

Series [2] relates to rat intestinal mucosa. In words: Gastric ulcerogenic activity (macroscopic inspection). It counts as in vivo. Further details: Score: Severity lesions: scale not given here. To be noted: oral 10 mg/kg. As for the experimental part: The two most common side effects of long-term NSAID use are gastrointestinal erosion and ulcers ([Hendawy et al., 2021]). As a result, we were curious about the ulcerogenic potential of the most efficacious drugs, 3e and 3j, when given orally. The ulcerogenic effects of 3e and 3j were assessed by macroscopic inspection of rat intestinal mucosa after oral administration of 10 mg/kg of 3e, 3j, indomethacin, and celecoxib ([Manivannan and Chaturvedi, 2011]).
The ulcerogenic effects of compounds 3e and 3j were evaluated by macroscopic examination of rat intestinal mucosa after oral administration of 10 mg/kg of these compounds and indomethacin and celecoxib ([Manivannan and Chaturvedi, 2011]). See Appendix A for details.

Series [3] has as its target T1, soya bean 5-LOX (Glycine max, UniProt P08170).
T1 construct: purchased Cayman Chemical, Ann Arbor, Michigan, USA 760700
T1 sequence (P08170 1-839): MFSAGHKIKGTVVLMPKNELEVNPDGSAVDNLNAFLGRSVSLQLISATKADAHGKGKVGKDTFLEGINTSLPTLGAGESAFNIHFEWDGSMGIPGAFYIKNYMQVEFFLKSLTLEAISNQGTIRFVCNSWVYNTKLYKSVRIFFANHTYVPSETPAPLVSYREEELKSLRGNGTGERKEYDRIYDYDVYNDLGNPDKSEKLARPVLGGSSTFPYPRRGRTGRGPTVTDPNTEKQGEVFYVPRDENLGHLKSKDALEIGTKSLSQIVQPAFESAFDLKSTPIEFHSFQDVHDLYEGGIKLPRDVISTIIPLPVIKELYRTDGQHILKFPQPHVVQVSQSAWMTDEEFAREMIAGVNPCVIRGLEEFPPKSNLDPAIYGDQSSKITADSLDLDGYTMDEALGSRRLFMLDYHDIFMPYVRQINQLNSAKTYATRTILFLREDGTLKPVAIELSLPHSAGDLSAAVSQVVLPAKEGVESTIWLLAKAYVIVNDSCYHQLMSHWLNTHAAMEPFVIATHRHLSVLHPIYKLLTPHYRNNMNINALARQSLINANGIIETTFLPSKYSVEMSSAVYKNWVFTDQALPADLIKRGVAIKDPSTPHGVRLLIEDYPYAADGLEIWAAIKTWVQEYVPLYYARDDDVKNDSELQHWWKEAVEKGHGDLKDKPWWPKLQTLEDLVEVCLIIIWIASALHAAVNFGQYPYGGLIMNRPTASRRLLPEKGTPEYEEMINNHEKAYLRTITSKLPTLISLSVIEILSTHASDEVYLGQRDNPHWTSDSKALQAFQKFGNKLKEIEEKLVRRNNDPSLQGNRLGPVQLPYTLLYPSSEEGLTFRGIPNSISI
In words: 5-LOX enzyme assay (EIA kit, Cayman 760700). Format: biochemical. The text has this:
The capacity of compounds 3a–j to inhibit the enzyme 5-lipoxygenase (5-LOX) has been investigated ([Youssif et al., 2019]).
The study used an enzyme immune assay (EIA) kit (catalogue no. 760700, Cayman Chemical, Ann Arbor, Michigan, USA) to evaluate the inhibitory activity of target analogues against soya bean 5-LOX, ensuring compliance with manufacturer’s instructions and protocols, and calculating IC50 values ([Roschek et al., 2009]).

For series [4], the target named is T2, mPGES-1 (Homo sapiens, UniProt O14684).
T2 construct: microsomal fractions from IL-1β-stimulated A549 cells served as the enzyme source; endogenous in cells; host or cells: A549 cells (IL-1β-stimulated), microsomal fraction
T2 sequence (O14684 1-152): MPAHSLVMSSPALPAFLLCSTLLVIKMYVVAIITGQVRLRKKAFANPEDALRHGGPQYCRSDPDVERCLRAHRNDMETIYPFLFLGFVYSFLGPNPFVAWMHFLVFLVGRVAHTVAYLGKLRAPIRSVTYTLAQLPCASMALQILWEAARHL
The experiment in a line: Cell-free mPGES-1 enzyme assay (microsomal fractions from IL-1β-stimulated A549 cells). Format: biochemical. To be noted: for remaining activity at 10 µM: 10 µM compound, read-out: mPGES-1 RA (%) 10 µM (residual activity percentage); for remaining activity at 10 µM / IC50: cell-free, A549 microsomes; for fold less potent than 3j (mPGES-1): from IC50 values. The protocol: A cell-free assay was conducted to evaluate the capacity of compounds […] to act as inhibitors of mPGES-1. In this assay, microsomal fractions from IL-1β-stimulated A549 cells served as the enzyme source ([Gürses et al., 2021]). During the initial screening phase, compounds 3a–j were examined for their effects on mPGES-1 at a concentration of 10 µM.
Microsomal measures of A549 cells expressing mPGES-1 were made in accordance with prior research findings ([Koeberle et al., 2008]). These cells were cultivated in Dulbecco’s Modified Eagle Medium and resuspended in a homogenization buffer. Subsequently, the microsomes were subjected to pre-incubation with either assessed compounds or a carrier solution containing 0.1 percent DMSO. The enzymatic process was halted by introducing FeCl3, citric acid, and 11-PGE2 as an internal standard. The quantities of Prostaglandin E2 (PGE2) were measured via RP-HPLC methodologies.

Series [5] deals with TNF-α. In words: Rat serum TNF-α after carrageenan (ELISA). Format: in vivo. To be noted: for TNFα serum concentration: mean ± SE. The text has this:
(§1) In this study, specializing ELISA kits were used to determine the concentration of inflammatory cytokines PGE2, IL-6, and TNF-α. The study’s findings were examined in accordance with the instructions provided by the manufacturer, and measurements were taken based on the optical density at 450 nm.
In general terms: ELISA stands for enzyme-linked immunosorbent assay.

Series [6] has as its system IL-6. The experiment in a line: Rat serum IL-6 after carrageenan (ELISA). It counts as in vivo.
Excerpt: as §1

The test system of series [7] is PGE2. In words: Rat serum PGE2 after carrageenan (ELISA). Format: in vivo. To be noted: 4 hours after subcutaneous carrageenan; for PGE2 serum concentration: mean ± SE.
Excerpt: Inhibiting PGE2 is a crucial strategy in anti-inflammatory therapy, playing a pivotal role in managing inflammation and its associated conditions.
as §1

Marks after values point to notes of the source that are not given here.

The source of these data is publication PMC11117333, “Design and synthesis of new dihydropyrimidine/sulphonamide hybrids as promising anti-inflammatory agents via dual mPGES-1/5-LOX inhibition” (Frontiers in Chemistry, 2024).

In the case of `Cc1ccc(-c2cc(C(F)(F)F)nn2-c2ccc(S(N)(=O)=O)cc2)cc1` [Celecoxib, reference compound], in series [1], the “% Of edema inhibition 1 h” value is 40%, the “% Of edema inhibition 3 h” value was 54% and the “% Of edema inhibition 5 h” value stood at 22%. Besides, in series [2], the “Score: No. of gastric ulcers” value is on record as 2.5 ± 0.10 and the “Score: Severity lesions” value is 5.80 ± 0.20.

As for `CC1=C(C(=O)Nc2ccc(S(N)(=O)=O)cc2)C(c2ccccc2)NC(=S)N1` (centres unmarked) [Compound 3a, 6-methyl-4-phenyl-N-[4-sulfamoylphenyl]-2-thioxo-1,2,3,4-tetrahydropyrimidine-5-carboxamide], the melting point fell in the range of 266 to 269 °C. Besides, in series [3], the IC50 was 5.85 µM. In series [4], the remaining activity at 10 µM is 89.2% and the concentration for half-maximal inhibition (IC50) worked out at 4.28 µM.

In the case of `CC1=C(C(=O)Nc2ccc(S(N)(=O)=O)cc2)C(c2cccc(O)c2)NC(=S)N1` (centres unmarked) [Compound 3b, 4-[3-hydroxyphenyl]-6-methyl-N-[4-sulfamoylphenyl]-2-thioxo-1,2,3,4-tetrahydropyrimidine-5-carboxamide], the melting point fell in the range of 288 to 291 °C. Further, half-maximal inhibition in series [3] (IC50) required 4.82 µM. Also, in series [4], the remaining activity at 10 µM was found to be 69.2% and the concentration for half-maximal inhibition (IC50) stood at 3.89 µM.

Turning to `COc1ccc(C2NC(=S)NC(C)=C2C(=O)Nc2ccc(S(N)(=O)=O)cc2)cc1O` (centres unmarked) [Compound 3c, 4-[3-hydroxy-4-methoxyphenyl]-6-methyl-N-[4-sulfamoylphenyl]-2-thioxo-1,2,3,4-tetrahydropyrimidine-5-carboxamide], the melting point is 296 °C. Besides, in series [1], the “% Of edema inhibition 1 h” value is given as 29%, the “% Of edema inhibition 3 h” value worked out at 46% and the “% Of edema inhibition 5 h” value is reported as 55%. Half-maximal inhibition in series [3] (IC50) was put at 2.87 µM. In series [4], the remaining activity at 10 µM was 33.6%; the midpoint of inhibition, the IC50, lay at 1.53 µM; the “fold less potent than 3j (mPGES-1)” value amounted to 1.5 fold.

The molecule `COc1cc(C2NC(=S)NC(C)=C2C(=O)Nc2ccc(S(N)(=O)=O)cc2)cc(OC)c1OC` (centres unmarked) [Compound 3d, 6-Methyl-N-[4-sulfamoylphenyl]-2-thioxo-4-[3,4,5-trimethoxyphenyl]-1,2,3,4-tetrahydropyrimidine-5-carboxamide] came in with a melting point of 270 to 272 °C. The molecule also had an IC50 in series [3] of 3.65 µM. Also, in series [4], the remaining activity at 10 µM came out at 46.8% and the IC50 amounted to 2.7 µM.

In turn, `CC1=C(C(=O)Nc2ccc(S(N)(=O)=O)cc2)C(c2ccccc2)NC(=O)N1` (centres unmarked) [Compound 3f, 6-methyl-2-oxo-4-phenyl-N-[4-sulfamoylphenyl]-1,2,3,4-tetrahydropyrimidine-5-carboxamide] yielded a melting point of 258 to 260 °C. Further, in series [3], half-maximal inhibition (IC50) required 5.34 µM. In series [4], the remaining activity at 10 µM amounted to 91.4% and inhibition was half-maximal at 4.78 µM (IC50).

`CC1=C(C(=O)Nc2ccc(S(N)(=O)=O)cc2)C(c2cccc(O)c2)NC(=O)N1` (centres unmarked) [Compound 3g, 4-[3-hydroxyphenyl]-6-methyl-2-oxo-N-[4-sulfamoylphenyl]-1,2,3,4-tetrahydropyrimidine-5-carboxamide] came in with a melting point of 270 to 272 °C. For the same molecule, in series [3], the IC50 stood at 4.45 µM. Further, in series [4], the remaining activity at 10 µM turned out to be 64.7% and the half-inhibitory concentration (IC50) turned out to be 3.45 µM.

In the case of `COc1ccc(C2NC(=O)NC(C)=C2C(=O)Nc2ccc(S(N)(=O)=O)cc2)cc1O` (centres unmarked) [Compound 3h, 4-[3-hydroxy-4-methoxyphenyl]-6-methyl-2-oxo-N-[4-sulfamoylphenyl]-1,2,3,4-tetrahydropyrimidine-5-carboxamide], the melting point lay in the range of 275 to 279 °C. Also, in series [1], the “% Of edema inhibition 1 h” value was 30%, the “% Of edema inhibition 3 h” value turned out to be 49% and the “% Of edema inhibition 5 h” value was 58%. Further, in series [5], the TNFα %inhibition came to 56% and the TNFα serum concentration is recorded as 102.70 ± 2.90^ab pg/mL. The molecule also came in with an IL-6 %inhibition in series [6] of 63%. Moreover, the IL-6 serum concentration in series [6] (mean ± SE) is on record as 140.70 ± 4.20^ab pg/mL. This molecule also came in with an IC50 in series [3] of 2.64 µM. In series [4], the remaining activity at 10 µM came to 31.2%, half-maximal inhibition (IC50) was put at 1.32 µM and the “fold less potent than 3j (mPGES-1)” value is 1.5 fold. Also, in series [7], the PGE2 %inhibition turned out to be 69% and the PGE2 serum concentration is given as 95.00 ± 2.50^abc pg/mL.

The molecule `COc1cc(C2NC(=O)NC(C)=C2C(=O)Nc2ccc(S(N)(=O)=O)cc2)cc(OC)c1OC` (centres unmarked) [Compound 3i, 6-methyl-2-oxo-N-[4-sulfamoylphenyl]-4-[3,4,5-trimethoxyphenyl]-1,2,3,4-tetrahydropyrimidine-5-carboxamide] displayed a melting point of 260 to 263 °C. In series [3], this molecule returned an IC50 of 3.97 µM. Besides, in series [4], the remaining activity at 10 µM came out at 53.6% and the IC50 stood at 2.89 µM.

As to `COc1ccc2c(c1)c(CC(=O)O)c(C)n2C(=O)c1ccc(Cl)cc1` [Indomethacin, reference compound], in series [2], the “Score: No. of gastric ulcers” value was determined as 8.5 ± 0.40 and the “Score: Severity lesions” value was determined as 12.50 ± 0.70.

Consider `Cc1cnc(NC(=O)C2=C(O)c3ccccc3S(=O)(=O)N2C)s1` [Meloxicam, reference compound], for which, in series [5], the TNFα %inhibition amounted to 62% and the TNFα serum concentration is on record as 88.50 ± 2.40^ab pg/mL. This molecule also displayed an IL-6 %inhibition in series [6] of 70%. Also, in series [7], the PGE2 %inhibition amounted to 73% and the PGE2 serum concentration is reported as 82.50 ± 2.58 ^b pg/mL. The PGE2 %inhibition in series [7] (listed as meloxicam) is recorded as 72.60%.

By IC50 is commonly meant the midpoint of a concentration-inhibition curve. A word on the melting point: it is the temperature of the solid-liquid transition.
